Key:
Conditions in all cases: Compound concentration 10 µM
[1] = target: T1, Alpha-2C adrenergic receptor (Homo sapiens) (UniProt P18825)
T1 sequence (whole entry): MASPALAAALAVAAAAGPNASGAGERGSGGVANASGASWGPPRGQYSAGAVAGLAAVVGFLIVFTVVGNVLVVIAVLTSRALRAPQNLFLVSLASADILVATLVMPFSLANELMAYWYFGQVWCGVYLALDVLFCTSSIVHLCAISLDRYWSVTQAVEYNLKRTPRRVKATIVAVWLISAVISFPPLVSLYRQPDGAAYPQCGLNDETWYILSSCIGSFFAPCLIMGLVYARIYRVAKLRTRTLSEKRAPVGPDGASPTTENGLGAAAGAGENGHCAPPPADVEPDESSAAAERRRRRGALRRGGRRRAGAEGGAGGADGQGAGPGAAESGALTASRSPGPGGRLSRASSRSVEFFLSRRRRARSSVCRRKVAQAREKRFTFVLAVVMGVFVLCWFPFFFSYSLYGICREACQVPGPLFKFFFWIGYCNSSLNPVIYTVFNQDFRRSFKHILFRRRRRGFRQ
Description: PDSP Primary Binding target: ADRA2C - Compounds are tested at 10 uM concentration, plate are incubated at room temperature in the dark for 90 minutes. Reaction are stopped by vacuum filtration onto 0.3% polyethyleneimine soaked filter mats using Filtermate harvester. Scintilation cocktail is then melted onto microwave-dried filters on a hot plate and the radio activity is counted in Microbia counter.

[2] = target: T2, Muscarinic acetylcholine receptor M5 (Homo sapiens) (UniProt P08912)
T2 sequence (whole entry): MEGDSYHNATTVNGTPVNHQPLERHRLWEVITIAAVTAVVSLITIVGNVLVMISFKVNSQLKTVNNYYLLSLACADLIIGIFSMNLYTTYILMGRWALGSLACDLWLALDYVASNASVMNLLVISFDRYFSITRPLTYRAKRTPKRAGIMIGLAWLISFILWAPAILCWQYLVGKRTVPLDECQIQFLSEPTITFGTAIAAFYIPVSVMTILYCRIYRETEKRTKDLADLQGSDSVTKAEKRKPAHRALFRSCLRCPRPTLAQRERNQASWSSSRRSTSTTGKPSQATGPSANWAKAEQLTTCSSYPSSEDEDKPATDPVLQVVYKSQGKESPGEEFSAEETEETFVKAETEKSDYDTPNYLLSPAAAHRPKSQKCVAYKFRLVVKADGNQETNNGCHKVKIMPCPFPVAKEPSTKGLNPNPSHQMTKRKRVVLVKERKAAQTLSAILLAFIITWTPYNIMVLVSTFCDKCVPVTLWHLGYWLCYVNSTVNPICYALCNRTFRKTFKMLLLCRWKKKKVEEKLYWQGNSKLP
Description: PDSP Primary Binding target: CHRM5 - Compounds are tested at 10 uM concentration, plate are incubated at room temperature in the dark for 90 minutes. Reaction are stopped by vacuum filtration onto 0.3% polyethyleneimine soaked filter mats using Filtermate harvester. Scintilation cocktail is then melted onto microwave-dried filters on a hot plate and the radio activity is counted in Microbia counter.

[3] = target: D(2) dopamine receptor (Homo sapiens) (UniProt P14416)
D(2) dopamine receptor (Homo sapiens), sequence (P14416 whole entry): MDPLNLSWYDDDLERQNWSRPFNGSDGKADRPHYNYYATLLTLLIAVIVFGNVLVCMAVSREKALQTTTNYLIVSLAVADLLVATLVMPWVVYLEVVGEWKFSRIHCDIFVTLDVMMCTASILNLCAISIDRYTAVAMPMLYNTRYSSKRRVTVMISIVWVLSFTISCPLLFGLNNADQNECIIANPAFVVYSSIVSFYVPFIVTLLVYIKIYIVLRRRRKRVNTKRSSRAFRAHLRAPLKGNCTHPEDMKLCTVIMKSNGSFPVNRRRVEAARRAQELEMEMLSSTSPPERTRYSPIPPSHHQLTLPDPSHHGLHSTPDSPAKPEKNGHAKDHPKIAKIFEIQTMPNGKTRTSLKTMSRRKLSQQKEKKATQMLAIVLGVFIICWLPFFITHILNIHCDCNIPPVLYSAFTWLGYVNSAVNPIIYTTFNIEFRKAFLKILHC
Description: PDSP Primary Binding target: DRD2 - Compounds are tested at 10 uM concentration, plate are incubated at room temperature in the dark for 90 minutes. Reaction are stopped by vacuum filtration onto 0.3% polyethyleneimine soaked filter mats using Filtermate harvester. Scintilation cocktail is then melted onto microwave-dried filters on a hot plate and the radio activity is counted in Microbia counter.

[4] = target: D(3) dopamine receptor (Homo sapiens) (UniProt P35462)
D(3) dopamine receptor (Homo sapiens), sequence (P35462 whole entry): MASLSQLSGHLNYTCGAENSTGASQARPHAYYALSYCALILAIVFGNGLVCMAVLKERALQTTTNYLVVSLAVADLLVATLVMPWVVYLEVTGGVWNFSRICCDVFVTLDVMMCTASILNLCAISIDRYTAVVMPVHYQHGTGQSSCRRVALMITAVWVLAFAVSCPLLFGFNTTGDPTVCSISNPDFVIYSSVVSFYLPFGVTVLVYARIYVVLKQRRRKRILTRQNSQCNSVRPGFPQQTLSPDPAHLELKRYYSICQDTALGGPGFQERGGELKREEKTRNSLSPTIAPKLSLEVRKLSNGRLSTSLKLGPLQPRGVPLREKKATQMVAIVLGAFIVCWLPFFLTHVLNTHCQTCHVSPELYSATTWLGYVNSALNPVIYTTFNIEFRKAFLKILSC
Description: PDSP Primary Binding target: DRD3 - Compounds are tested at 10 uM concentration, plate are incubated at room temperature in the dark for 90 minutes. Reaction are stopped by vacuum filtration onto 0.3% polyethyleneimine soaked filter mats using Filtermate harvester. Scintilation cocktail is then melted onto microwave-dried filters on a hot plate and the radio activity is counted in Microbia counter.

[5] = target: Histamine H1 receptor (Homo sapiens) (UniProt P35367)
Histamine H1 receptor (Homo sapiens), sequence (P35367 whole entry): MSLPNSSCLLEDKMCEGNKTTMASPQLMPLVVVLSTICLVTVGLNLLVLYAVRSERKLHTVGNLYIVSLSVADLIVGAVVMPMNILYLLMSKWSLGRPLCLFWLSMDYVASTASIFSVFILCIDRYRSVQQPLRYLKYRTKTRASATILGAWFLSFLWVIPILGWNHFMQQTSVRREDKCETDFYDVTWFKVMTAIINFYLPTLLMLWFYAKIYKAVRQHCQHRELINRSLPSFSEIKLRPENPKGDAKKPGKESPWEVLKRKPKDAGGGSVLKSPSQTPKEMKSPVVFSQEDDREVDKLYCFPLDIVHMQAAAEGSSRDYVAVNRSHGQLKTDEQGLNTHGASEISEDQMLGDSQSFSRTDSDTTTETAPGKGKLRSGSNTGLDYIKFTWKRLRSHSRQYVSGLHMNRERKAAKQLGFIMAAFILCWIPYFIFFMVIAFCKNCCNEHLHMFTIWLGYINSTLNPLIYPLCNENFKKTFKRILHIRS
Description: PDSP Primary Binding target: HRH1 - Compounds are tested at 10 uM concentration, plate are incubated at room temperature in the dark for 90 minutes. Reaction are stopped by vacuum filtration onto 0.3% polyethyleneimine soaked filter mats using Filtermate harvester. Scintilation cocktail is then melted onto microwave-dried filters on a hot plate and the radio activity is counted in Microbia counter.

[6] = target: T3, 5-hydroxytryptamine receptor 1A (Homo sapiens) (UniProt P08908)
T3 sequence (whole entry): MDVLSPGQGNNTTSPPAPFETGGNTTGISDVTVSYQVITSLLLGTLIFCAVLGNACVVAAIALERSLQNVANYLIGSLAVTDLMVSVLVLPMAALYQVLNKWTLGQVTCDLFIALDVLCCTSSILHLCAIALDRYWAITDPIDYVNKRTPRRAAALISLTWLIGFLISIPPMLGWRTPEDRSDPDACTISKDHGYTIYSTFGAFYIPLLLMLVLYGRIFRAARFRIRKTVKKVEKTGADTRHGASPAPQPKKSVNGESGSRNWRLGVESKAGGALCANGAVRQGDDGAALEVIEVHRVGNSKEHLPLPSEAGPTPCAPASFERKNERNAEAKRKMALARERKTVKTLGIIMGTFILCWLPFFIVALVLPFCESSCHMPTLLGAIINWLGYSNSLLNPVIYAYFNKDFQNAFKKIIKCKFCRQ
Description: PDSP Primary Binding target: HTR1A - Compounds are tested at 10 uM concentration, plate are incubated at room temperature in the dark for 90 minutes. Reaction are stopped by vacuum filtration onto 0.3% polyethyleneimine soaked filter mats using Filtermate harvester. Scintilation cocktail is then melted onto microwave-dried filters on a hot plate and the radio activity is counted in Microbia counter.

[7] = target: 5-hydroxytryptamine receptor 1B (Homo sapiens) (UniProt P28222)
5-hydroxytryptamine receptor 1B (Homo sapiens), sequence (P28222 whole entry): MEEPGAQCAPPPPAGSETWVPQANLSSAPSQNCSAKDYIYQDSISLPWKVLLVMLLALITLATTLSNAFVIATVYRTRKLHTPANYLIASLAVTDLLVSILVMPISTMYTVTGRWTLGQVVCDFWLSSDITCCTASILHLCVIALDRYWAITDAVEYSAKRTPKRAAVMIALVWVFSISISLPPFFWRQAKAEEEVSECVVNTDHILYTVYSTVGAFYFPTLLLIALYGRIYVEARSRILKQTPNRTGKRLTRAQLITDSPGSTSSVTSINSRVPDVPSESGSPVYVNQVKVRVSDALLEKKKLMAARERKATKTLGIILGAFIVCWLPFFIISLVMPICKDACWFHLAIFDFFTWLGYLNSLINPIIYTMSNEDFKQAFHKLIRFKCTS
Description: PDSP Primary Binding target: HTR1B - Compounds are tested at 10 uM concentration, plate are incubated at room temperature in the dark for 90 minutes. Reaction are stopped by vacuum filtration onto 0.3% polyethyleneimine soaked filter mats using Filtermate harvester. Scintilation cocktail is then melted onto microwave-dried filters on a hot plate and the radio activity is counted in Microbia counter.

[8] = target: 5-hydroxytryptamine receptor 5A (Homo sapiens) (UniProt P47898)
5-hydroxytryptamine receptor 5A (Homo sapiens), sequence (P47898 whole entry): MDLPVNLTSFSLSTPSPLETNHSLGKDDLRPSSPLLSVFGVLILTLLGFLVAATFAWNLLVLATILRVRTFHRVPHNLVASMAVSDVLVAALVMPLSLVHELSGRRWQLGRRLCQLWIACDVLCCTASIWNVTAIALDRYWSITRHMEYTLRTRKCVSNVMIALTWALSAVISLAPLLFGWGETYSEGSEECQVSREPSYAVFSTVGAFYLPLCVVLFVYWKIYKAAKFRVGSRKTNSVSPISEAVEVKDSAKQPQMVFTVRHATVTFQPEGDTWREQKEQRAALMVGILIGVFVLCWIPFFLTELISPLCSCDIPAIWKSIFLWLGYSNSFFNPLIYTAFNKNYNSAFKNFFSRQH
Description: PDSP Primary Binding target: HTR5A - Compounds are tested at 10 uM concentration, plate are incubated at room temperature in the dark for 90 minutes. Reaction are stopped by vacuum filtration onto 0.3% polyethyleneimine soaked filter mats using Filtermate harvester. Scintilation cocktail is then melted onto microwave-dried filters on a hot plate and the radio activity is counted in Microbia counter.

[9] = target: 5-hydroxytryptamine receptor 7 (Homo sapiens) (UniProt P34969)
5-hydroxytryptamine receptor 7 (Homo sapiens), sequence (P34969 whole entry): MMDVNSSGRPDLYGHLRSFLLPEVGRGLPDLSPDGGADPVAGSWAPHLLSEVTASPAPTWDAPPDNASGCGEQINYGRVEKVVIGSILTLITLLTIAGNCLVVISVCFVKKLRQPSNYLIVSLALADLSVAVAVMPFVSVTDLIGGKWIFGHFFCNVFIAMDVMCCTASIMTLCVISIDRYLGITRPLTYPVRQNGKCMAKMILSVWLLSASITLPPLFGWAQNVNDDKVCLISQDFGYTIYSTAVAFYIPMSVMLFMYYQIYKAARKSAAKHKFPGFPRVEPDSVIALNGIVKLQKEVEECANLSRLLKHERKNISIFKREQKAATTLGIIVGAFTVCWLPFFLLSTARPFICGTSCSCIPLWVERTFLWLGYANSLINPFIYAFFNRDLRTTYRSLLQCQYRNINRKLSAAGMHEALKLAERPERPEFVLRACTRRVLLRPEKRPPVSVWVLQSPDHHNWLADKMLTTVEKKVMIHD
Description: PDSP Primary Binding target: HTR7 - Compounds are tested at 10 uM concentration, plate are incubated at room temperature in the dark for 90 minutes. Reaction are stopped by vacuum filtration onto 0.3% polyethyleneimine soaked filter mats using Filtermate harvester. Scintilation cocktail is then melted onto microwave-dried filters on a hot plate and the radio activity is counted in Microbia counter.

[10] = target: Sigma non-opioid intracellular receptor 1 (Homo sapiens) (UniProt Q99720)
Sigma non-opioid intracellular receptor 1 (Homo sapiens), sequence (Q99720 whole entry): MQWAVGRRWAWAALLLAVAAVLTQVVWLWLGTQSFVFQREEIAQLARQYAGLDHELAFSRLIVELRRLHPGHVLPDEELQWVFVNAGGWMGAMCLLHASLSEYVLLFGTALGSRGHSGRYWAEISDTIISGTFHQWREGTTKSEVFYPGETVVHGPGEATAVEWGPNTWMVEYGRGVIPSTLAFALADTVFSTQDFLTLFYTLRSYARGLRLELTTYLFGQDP
Description: PDSP Primary Binding target: SIGMAR1 - Compounds are tested at 10 uM concentration, plate are incubated at room temperature in the dark for 90 minutes. Reaction are stopped by vacuum filtration onto 0.3% polyethyleneimine soaked filter mats using Filtermate harvester. Scintilation cocktail is then melted onto microwave-dried filters on a hot plate and the radio activity is counted in Microbia counter.

[11] = target: Sodium-dependent dopamine transporter (Homo sapiens) (UniProt Q01959)
Sodium-dependent dopamine transporter (Homo sapiens), sequence (Q01959 whole entry): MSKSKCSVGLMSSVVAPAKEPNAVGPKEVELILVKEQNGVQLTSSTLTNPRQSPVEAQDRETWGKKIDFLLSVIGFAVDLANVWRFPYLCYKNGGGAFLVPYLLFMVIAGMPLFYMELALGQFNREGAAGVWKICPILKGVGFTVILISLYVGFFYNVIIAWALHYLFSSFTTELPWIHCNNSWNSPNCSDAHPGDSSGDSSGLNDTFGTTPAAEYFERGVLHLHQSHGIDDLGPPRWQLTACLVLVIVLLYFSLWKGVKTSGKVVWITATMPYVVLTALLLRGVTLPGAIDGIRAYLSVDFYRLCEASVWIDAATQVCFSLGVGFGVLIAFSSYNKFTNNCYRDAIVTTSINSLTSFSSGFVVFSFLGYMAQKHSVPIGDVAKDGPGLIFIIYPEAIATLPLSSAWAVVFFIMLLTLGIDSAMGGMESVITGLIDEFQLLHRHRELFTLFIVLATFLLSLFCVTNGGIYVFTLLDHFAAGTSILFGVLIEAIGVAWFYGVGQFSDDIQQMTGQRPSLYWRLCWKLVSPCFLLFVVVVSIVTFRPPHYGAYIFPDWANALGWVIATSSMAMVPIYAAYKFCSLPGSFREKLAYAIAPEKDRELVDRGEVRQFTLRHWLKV
Description: PDSP Primary Binding target: SLC6A3 - Compounds are tested at 10 uM concentration, plate are incubated at room temperature in the dark for 90 minutes. Reaction are stopped by vacuum filtration onto 0.3% polyethyleneimine soaked filter mats using Filtermate harvester. Scintilation cocktail is then melted onto microwave-dried filters on a hot plate and the radio activity is counted in Microbia counter.

[12] = target: Sodium-dependent serotonin transporter (Homo sapiens) (UniProt P31645)
Sodium-dependent serotonin transporter (Homo sapiens), sequence (P31645 whole entry, looked up): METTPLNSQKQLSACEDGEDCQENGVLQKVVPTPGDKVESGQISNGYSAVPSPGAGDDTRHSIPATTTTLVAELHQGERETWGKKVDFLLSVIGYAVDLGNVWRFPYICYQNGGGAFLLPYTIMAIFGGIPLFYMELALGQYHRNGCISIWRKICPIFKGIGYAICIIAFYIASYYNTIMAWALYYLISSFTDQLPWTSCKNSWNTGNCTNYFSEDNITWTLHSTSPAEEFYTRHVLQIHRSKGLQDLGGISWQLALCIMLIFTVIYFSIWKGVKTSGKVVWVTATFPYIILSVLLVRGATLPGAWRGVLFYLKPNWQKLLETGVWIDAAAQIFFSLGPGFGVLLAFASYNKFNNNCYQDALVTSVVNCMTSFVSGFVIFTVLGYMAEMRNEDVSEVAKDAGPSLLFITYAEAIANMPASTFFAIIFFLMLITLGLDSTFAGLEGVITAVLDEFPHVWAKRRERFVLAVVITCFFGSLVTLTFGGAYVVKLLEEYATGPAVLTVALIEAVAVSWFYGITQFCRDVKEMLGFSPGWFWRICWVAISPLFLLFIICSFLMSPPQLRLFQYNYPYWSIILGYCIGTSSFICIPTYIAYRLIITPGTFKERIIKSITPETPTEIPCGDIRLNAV
Description: PDSP Primary Binding target: SLC6A4 - Compounds are tested at 10 uM concentration, plate are incubated at room temperature in the dark for 90 minutes. Reaction are stopped by vacuum filtration onto 0.3% polyethyleneimine soaked filter mats using Filtermate harvester. Scintilation cocktail is then melted onto microwave-dried filters on a hot plate and the radio activity is counted in Microbia counter.

[13] = target: Translocator protein (Homo sapiens) (UniProt P30536)
Translocator protein (Homo sapiens), sequence (P30536 whole entry): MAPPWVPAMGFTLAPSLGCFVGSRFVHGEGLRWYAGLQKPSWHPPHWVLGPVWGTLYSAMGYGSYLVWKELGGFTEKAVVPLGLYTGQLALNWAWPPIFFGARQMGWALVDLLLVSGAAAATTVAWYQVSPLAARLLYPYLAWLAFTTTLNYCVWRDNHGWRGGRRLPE
Description: PDSP Primary Binding target: TSPO - Compounds are tested at 10 uM concentration, plate are incubated at room temperature in the dark for 90 minutes. Reaction are stopped by vacuum filtration onto 0.3% polyethyleneimine soaked filter mats using Filtermate harvester. Scintilation cocktail is then melted onto microwave-dried filters on a hot plate and the radio activity is counted in Microbia counter.

[14] = target: T4, Muscarinic acetylcholine receptor M2 (Homo sapiens) (UniProt P08172)
T4 sequence (whole entry): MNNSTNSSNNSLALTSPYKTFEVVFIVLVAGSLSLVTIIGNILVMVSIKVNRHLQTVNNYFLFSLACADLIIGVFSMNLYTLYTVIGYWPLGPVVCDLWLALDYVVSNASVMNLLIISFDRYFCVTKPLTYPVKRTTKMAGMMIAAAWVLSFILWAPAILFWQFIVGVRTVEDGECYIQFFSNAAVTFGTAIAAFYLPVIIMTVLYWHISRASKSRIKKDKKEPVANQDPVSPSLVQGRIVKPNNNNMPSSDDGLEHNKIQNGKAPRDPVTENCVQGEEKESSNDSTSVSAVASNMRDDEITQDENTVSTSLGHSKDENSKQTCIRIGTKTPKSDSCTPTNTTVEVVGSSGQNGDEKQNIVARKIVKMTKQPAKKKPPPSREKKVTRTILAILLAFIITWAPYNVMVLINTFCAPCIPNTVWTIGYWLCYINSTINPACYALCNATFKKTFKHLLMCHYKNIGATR
Description: PDSP Primary Binding target: CHRM2 - Compounds are tested at 10 uM concentration, plate are incubated at room temperature in the dark for 90 minutes. Reaction are stopped by vacuum filtration onto 0.3% polyethyleneimine soaked filter mats using Filtermate harvester. Scintilation cocktail is then melted onto microwave-dried filters on a hot plate and the radio activity is counted in Microbia counter.

Row | Compound | inhibition [1] | inhibition [2] | inhibition [3] | inhibition [4] | inhibition [5] | inhibition [6] | inhibition [7] | inhibition [8] | inhibition [9] | inhibition [10] | inhibition [11] | inhibition [12] | inhibition [13] | inhibition [14]
1 | CC(C)[C@H](CO)Nc1nc(Nc2cccc(Cl)c2)c2ncn(C(C)C)c2n1 | 28.4% | 21.1% | 11% | 22.4% | -4.77% | 5.71% | 38.1% | 60.9% | 11.4% | 14.4% | 17.5% | 3.66% | 76.5% | –
2 | CN1CCC(C(=O)c2cccc(NC(=O)c3c(F)cc(F)cc3F)n2)CC1 | 6.36% | 64% | 26.2% | – | 16.4% | 4.22% | 43.4% | 27.2% | 52.8% | 81.6% | 42.1% | 10.4% | – | -1.5%
3 | COc1ccc2cc(S(=O)(=O)N[C@H](CC(=O)N[C@H](Cc3ccc(CN4[C@H](C)CCC[C@@H]4C)cc3)C(=O)N(C)C(C)C)c3ccc4c(c3)OCO4)ccc2c1 | 71.8% | 52.8% | 2.14% | 26% | 33.1% | -7.48% | 31.1% | 20.3% | -0.02% | 102% | 36.8% | – | 0.6% | 69.6%
4 | CCCCCCCCCCCCC/C=C/[C@@H](O)[C@@H](N)COP(=O)(O)O | -4.87% | 6.31% | 10.6% | 1.79% | 14.3% | -8.27% | 8.79% | -4.35% | 16.1% | 63.8% | – | -0.47% | 64.6% | -7.68%
5 | Cc1nn(C)c(C)c1-c1cccc2c1CC[C@H](N(C)C)C2 | 45.4% | 69.2% | 32.7% | -2.85% | 9.36% | 51.8% | 91.5% | 87.1% | 94.1% | 102% | 37.9% | 3.62% | – | –
6 | c1nc(CC2CCNCC2)c[nH]1 | -1.91% | 1.07% | 27.8% | -4.62% | 26.1% | -10% | 17.7% | -4.49% | 11.9% | 38.7% | 14.6% | 1.26% | – | 10.6%
7 | O=c1ccn([C@@H]2O[C@H](COP(=O)(O)OP(=O)(O)OP(=O)(O)O)[C@@H](O)[C@H]2O)c(=O)[nH]1 | 6.85% | 7.7% | 90.1% | 22.3% | -0.29% | 26.3% | 7.75% | 16.9% | 3.3% | 35.3% | -7.04% | 13.8% | 56.6% | –
8 | CN1C[C@H](C(=O)N[C@]2(C)O[C@@]3(O)[C@@H]4CCCN4C(=O)[C@H](Cc4ccccc4)N3C2=O)C[C@@H]2c3cccc4[nH]cc(c34)C[C@H]21 | 115% | 7.31% | 100% | 97.8% | – | 96.3% | 104% | 97.6% | 91.3% | 72.9% | 5.72% | – | 19% | 4.48%
9 | Cc1ccccc1N1CCN(S(=O)(=O)C[C@]23CC[C@H](C[C@@H]2NC(=O)[C@@H](N)CCS(C)(=O)=O)C3(C)C)CC1 | 14.7% | – | – | – | 0.34% | – | 18.8% | -3.77% | 25.6% | 89.9% | 30.4% | -9.42% | -1.05% | –
10 | CN1CCC(=C2c3ccccc3CC(=O)c3sccc32)CC1 | 42.7% | 93.2% | 100% | 80.2% | – | 6.57% | 63.1% | 43.5% | 90.4% | -1.6% | 20.7% | – | 6.55% | 75.2%
11 | COc1cc2nc(N3CCN(C(=O)c4ccco4)CC3)nc(N)c2cc1OC | 97.1% | 3.19% | 49.2% | 37.6% | – | 8.03% | 27.2% | 83.4% | 23.8% | 68% | 29.4% | – | 75.9% | 15.9%
12 | Cc1ccc(O)c([C@H](CCN(C(C)C)C(C)C)c2ccccc2)c1 | 14.9% | 0% | 42.6% | 46.2% | 83.1% | -6.09% | 25.3% | – | – | 90.9% | 16.2% | 20.8% | 13.8% | 97.6%
13 | CCc1nn(CCCN2CCN(c3cccc(Cl)c3)CC2)c(=O)n1CCOc1ccccc1 | 95.3% | 30.8% | 69.7% | 86.1% | 94.5% | 42.6% | 88% | 73.3% | 97% | 1.48% | 78.7% | 84.9% | 64.2% | –
14 | CN[C@@H]1CCc2[nH]c3ccc(C(N)=O)cc3c2C1 | – | -1.58% | 67.2% | 47.6% | 0.33% | 56.4% | 88.2% | 9.03% | 92% | 42.1% | – | 7.67% | -4.51% | 10.5%
15 | CCc1cc2c(cc1CC)CC(NC[C@H](O)c1ccc(O)c3[nH]c(=O)ccc13)C2 | 30% | 37.8% | -7.35% | 58.8% | 34.9% | 1.29% | 34.4% | 6.33% | -0.79% | -7.63% | 83.1% | 52.9% | – | –
